Laboratory results as given in patent US12180193B2, “Accelerating fibrosarcoma protein degrading compounds and associated methods of use” (Arvinas Operations, Inc., priority 2020, dated 2024).

Columns and labels:
[1] = biological target: T1, BRAF V600E (Homo sapiens, UniProt P15056, V600E); test: Cellular assay of target protein degradation, T-Rex 293 cells stably transfected with HA-BRAF_V600E (HA immunofluorescence, high content imaging); type: cell-based; conditions: T-Rex 293 HA-BRAF V600E; for DC50: half maximal degradation, read-out: BRaf V600E DC50; for Dmax: maximum degradation observed
T1 construct: expressed in transfected cells
Procedure, shortened: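 Doxycycline-induced (1 ng/mL) cells were treated 24 h at 37 °C with compound at 1 μM to 0.1 nM final in 0.1% DMSO. After fixation, permeabilization and blocking, anti-HA staining was imaged by high-content reading; DC50 and Dmax (% of control) were derived.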

[2] = biological target: T2, BRAF G466V (Homo sapiens, UniProt P15056, G466V); test: Cellular assay of target protein degradation, T-Rex 293 cells stably transfected with HA-BRAF G466V (HA immunofluorescence, high content imaging); type: cell-based; conditions: T-Rex 293 HA-BRAF G466V; for DC50: half maximal degradation, read-out: BRaf G466V DC50; for Dmax: maximum degradation observed
T2 construct: expressed in transfected cells
Procedure, shortened: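 Cells expressing doxycycline-induced (0.75 ng/mL) HA-BRAF G466V were treated with compound at 30 nM to 3 pM in 0.1% DMSO for 24 hours at 37° C. After fixation and permeabilization, HA was immunostained and quantified by high content imaging to derive DC50 and Dmax.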

T2 sequence (P15056 whole entry G466V): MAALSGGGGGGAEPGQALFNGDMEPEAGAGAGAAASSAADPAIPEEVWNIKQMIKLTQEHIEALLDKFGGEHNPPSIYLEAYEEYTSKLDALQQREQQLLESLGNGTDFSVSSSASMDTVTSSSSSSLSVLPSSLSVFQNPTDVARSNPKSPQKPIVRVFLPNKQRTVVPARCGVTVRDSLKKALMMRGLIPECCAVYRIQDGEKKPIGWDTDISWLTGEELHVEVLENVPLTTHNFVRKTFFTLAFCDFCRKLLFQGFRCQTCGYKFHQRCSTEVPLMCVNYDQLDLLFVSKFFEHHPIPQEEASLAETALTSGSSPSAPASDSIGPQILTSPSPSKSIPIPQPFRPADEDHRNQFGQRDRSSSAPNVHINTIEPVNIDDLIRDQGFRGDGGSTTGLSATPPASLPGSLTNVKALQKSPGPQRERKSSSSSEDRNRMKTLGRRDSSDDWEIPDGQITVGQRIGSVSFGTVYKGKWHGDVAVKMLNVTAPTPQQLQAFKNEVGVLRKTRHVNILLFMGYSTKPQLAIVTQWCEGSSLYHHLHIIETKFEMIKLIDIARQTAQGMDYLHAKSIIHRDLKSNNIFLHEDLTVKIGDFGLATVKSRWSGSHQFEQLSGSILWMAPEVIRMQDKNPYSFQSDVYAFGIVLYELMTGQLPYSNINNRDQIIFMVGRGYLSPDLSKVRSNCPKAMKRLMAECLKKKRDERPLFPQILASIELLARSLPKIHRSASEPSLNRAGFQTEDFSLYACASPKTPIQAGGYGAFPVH
T1 sequence (P15056 whole entry V600E): as the sequence (P15056 whole entry G466V) above, with V466G, V600E counted along it

SMILES	DC50 [1]	Dmax [1]	DC50 [2]	Dmax [2]
O=C1CCC(N2Cc3cc(N4CC(CN5CCN(C6(c7ccc(-c8cnc9[nH]cc(C(=O)c%10c(F)ccc(NS(=O)(=O)N%11CC[C@@H](F)C%11)c%10F)c9c8)cc7)CC6)CC5)C4)ccc3C2=O)C(=O)N1 (stereo partly drawn) [Compound 200, (3R)-N-{3-[5-(4-{1-[4-({1-[2-(2,6-dioxopiperidin-3-yl)-1-oxo-2,3-dihydro-1H-isoindol-5-yl]azetidin-3-yl}methyl)piperazin-1-yl]cyclopropyl}phenyl)-1H-pyrrolo[2,3-b]pyridine-3-carbonyl]-2,4-difluorophenyl}-3-fluoropyrrolidine-1-sulfonamide]	50 to 500 nM	35 to 70%	1 to 10 nM	35 to 70%
CN(C1CC1)S(=O)(=O)Nc1ccc(F)c(C(=O)c2c[nH]c3ncc(-c4ccc(N5CCC(CN6CCC(c7ccc8c(c7)CN([C@H]7CCC(=O)NC7=O)C8=O)CC6)CC5)cc4)cc23)c1F [Compound 281, (3S)-3-(5-{1-[(1-{4-[3-(3-{[cyclopropyl(methyl)sulfamoyl]amino}-2,6-difluorobenzoyl)-1H-pyrrolo[2,3-b]pyridin-5-yl]phenyl}piperidin-4-yl)methyl]piperidin-4-yl}-1-oxo-2,3-dihydro-1H-isoindol-2-yl) piperidine-2,6-dione]	5 to 50 nM	35 to 70%	1 to 10 nM	35 to 70%
COc1ccc(NS(=O)(=O)N2CC[C@@H](F)C2)c(F)c1C(=O)c1c[nH]c2ncc(-c3ccc(N4CCC(CN5CCC(c6ccc7c(c6)CN(C6CCC(=O)NC6=O)C7=O)CC5)CC4)cc3)cc12 (stereo partly drawn) [Compound 269, (3R)-N-[3-(5-{4-[4-({4-[2-(2,6-dioxopiperidin-3-yl)-1-oxo-2,3-dihydro-1H-isoindol-5-yl]piperidin-1-yl}methyl)piperidin-1-yl]phenyl}-1H-pyrrolo[2,3-b]pyridine-3-carbonyl)-2-fluoro-4-methoxyphenyl]-3-fluoropyrrolidine-1-sulfonamide]	5 to 50 nM	35 to 70%	1 to 10 nM	35 to 70%
O=C1CCC(N2Cc3cc(N4CC(CN5CCC(C6(c7ncc(-c8cnc9[nH]cc(C(=O)c%10c(F)ccc(NS(=O)(=O)N%11CC[C@@H](F)C%11)c%10F)c9c8)cn7)CC6)CC5)C4)ccc3C2=O)C(=O)N1 (some centres unmarked) [Compound 334]	50 to 500 nM	35 to 70%	1 to 10 nM	> 70%
COc1cc(C2CCN(CC3CCN(c4ccc(-c5cnc6[nH]cc(C(=O)c7c(F)ccc(NS(=O)(=O)N8CC[C@@H](F)C8)c7F)c6c5)cc4)CC3)CC2)ccc1C(=O)NC1CCC(=O)NC1=O (stereo partly drawn) [Compound 184, 4-(1-{[1-(4-{3-[2,6-difluoro-3-({[(3R)-3-fluoropyrrolidin-1-yl]sulfonyl}amino)benzoyl]-1H-pyrrolo[2,3-b]pyridin-5-yl}phenyl)piperidin-4-yl]methyl}piperidin-4-yl)-N-(2,6-dioxopiperidin-3-yl)-2-methoxybenzamide]	5 to 50 nM	< 35%	1 to 10 nM	35 to 70%
O=C1CCC(N2Cc3cc(C4CCN(CC5CCN(c6ccc(-c7cnc8[nH]cc(C(=O)c9c(F)ccc(NS(=O)(=O)N%10CC[C@@H](F)C%10)c9C(F)(F)F)c8c7)cc6)CC5)CC4)ccc3C2=O)C(=O)N1 (stereo partly drawn) [Compound 273, (3R)-N-[3-(5-{4-[4-({4-[2-(2,6-dioxopiperidin-3-yl)-1-oxo-2,3-dihydro-1H-isoindol-5-yl]piperidin-1-yl}methyl)piperidin-1-yl]phenyl}-1H-pyrrolo[2,3-b]pyridine-3-carbonyl)-4-fluoro-2-(trifluoromethyl)phenyl]-3-fluoropyrrolidine-1-sulfonamide]	> 500 nM	35 to 70%	10 to 30 nM	35 to 70%
O=C1CCC(N2Cc3cc(OCCCCN4CCN(c5ccc(-c6cnc7[nH]cc(C(=O)c8c(F)ccc(NS(=O)(=O)N9CC[C@@H](F)C9)c8F)c7c6)cc5F)CC4)ccc3C2=O)C(=O)N1 (stereo partly drawn) [Compound 113, (3R)-N-[3-(5-{4-[4-(4-{[2-(2,6-dioxopiperidin-3-yl)-1-oxo-2,3-dihydro-1H-isoindol-5-yl]oxy}butyl)piperazin-1-yl]-3-fluorophenyl}-1H-pyrrolo[2,3-b]pyridine-3-carbonyl)-2,4-difluorophenyl]-3-fluoropyrrolidine-1-sulfonamide]	5 to 50 nM	35 to 70%	1 to 10 nM	> 70%
O=C1CC[C@@H](N2Cc3cc(N4CC[C@@H](COc5ccc(-c6cnc7[nH]cc(C(=O)c8c(F)ccc(NS(=O)(=O)N9CC[C@@H](F)C9)c8F)c7c6)cc5)C4)ccc3C2=O)C(=O)N1 [Compound 336, (3R)-N-{3-[5-(4-{[(3R)-1-{2-[(3R)-2,6-dioxopiperidin-3-yl]-1-oxo-2,3-dihydro-1H-isoindol-5-yl}pyrrolidin-3-yl]methoxy}phenyl)-1H-pyrrolo[2,3-b]pyridine-3-carbonyl]-2,4-difluorophenyl}-3-fluoropyrrolidine-1-sulfonamide]	> 500 nM	35 to 70%	> 30 nM	
O=C1CC[C@H](N2Cc3cc(C[C@H](O)CN4CCN(c5ccc(-c6cnc7[nH]cc(C(=O)c8c(F)ccc(NS(=O)(=O)N9CC[C@@H](F)C9)c8F)c7c6)cc5)CC4)ccc3C2=O)C(=O)N1 [Compound 74]	5 to 50 nM	35 to 70%	1 to 10 nM	> 70%
O=C1CCC(N2Cc3cc(N4CCC(COCC5CCN(c6ccc(-c7cnc8[nH]cc(C(=O)c9c(F)ccc(NS(=O)(=O)N%10CC[C@@H](F)C%10)c9F)c8c7)cc6)CC5)CC4)ccc3C2=O)C(=O)N1 (stereo partly drawn) [Compound 143, (3R)-N-{3-[5-(4-{4-[({1-[2-(2,6-dioxopiperidin-3-yl)-1-oxo-2,3-dihydro-1H-isoindol-5-yl]piperidin-4-yl}methoxy)methyl]piperidin-1-yl}phenyl)-1H-pyrrolo[2,3-b]pyridine-3-carbonyl]-2,4-difluorophenyl}-3-fluoropyrrolidine-1-sulfonamide]	5 to 50 nM	< 35%	10 to 30 nM	35 to 70%

The remaining lines, values ahead:

DC50 [1]	Dmax [1]	DC50 [2]	Dmax [2]	SMILES
50 to 500 nM	< 35%	1 to 10 nM	> 70%	O=C1CCC(N2Cc3cc(N4CCC(CN5CC(C6(c7ccc(-c8cnc9[nH]cc(C(=O)c%10c(F)ccc(NS(=O)(=O)N%11CC[C@@H](F)C%11)c%10F)c9c8)cc7)CC6)C5)CC4)ccc3C2=O)C(=O)N1 (stereo partly drawn) [Compound 316, (3R)-N-{3-[5-(4-{1-[1-({1-[2-(2,6-dioxopiperidin-3-yl)-1-oxo-2,3-dihydro-1H-isoindol-5-yl]piperidin-4-yl}methyl)azetidin-3-yl]cyclopropyl}phenyl)-1H-pyrrolo[2,3-b]pyridine-3-carbonyl]-2,4-difluorophenyl}-3-fluoropyrrolidine-1-sulfonamide]
5 to 50 nM	35 to 70%	< 1 nM	> 70%	O=C1CCC(N2Cc3cc(N4CC5(CN(CCOc6ccc(-c7cnc8[nH]cc(C(=O)c9c(F)ccc(NS(=O)(=O)N%10CC[C@@H](F)C%10)c9F)c8c7)cc6)C5)C4)ccc3C2=O)C(=O)N1 (stereo partly drawn) [Compound 50, (3R)-N-(3-{5-[4-(2-{6-[2-(2,6-dioxopiperidin-3-yl)-1-oxo-2,3-dihydro-1H-isoindol-5-yl]-2,6-diazaspiro[3.3]heptan-2-yl}ethoxy)phenyl]-1H-pyrrolo[2,3-b]pyridine-3-carbonyl}-2,4-difluorophenyl)-3-fluoropyrrolidine-1-sulfonamide]
5 to 50 nM	35 to 70%	1 to 10 nM	> 70%	O=C1CCC(N2Cc3cc(CCCN4CC5(C4)CN(c4ccc(-c6cnc7[nH]cc(C(=O)c8c(F)ccc(NS(=O)(=O)N9CC[C@@H](F)C9)c8F)c7c6)cn4)C5)ccc3C2=O)C(=O)N1 (stereo partly drawn) [Compound 141, (3R)-N-(3-{5-[6-(6-{3-[2-(2,6-dioxopiperidin-3-yl)-1-oxo-2,3-dihydro-1H-isoindol-5-yl]propyl}-2,6-diazaspiro[3.3]heptan-2-yl)pyridin-3-yl]-1H-pyrrolo[2,3-b]pyridine-3-carbonyl}-2,4-difluorophenyl)-3-fluoropyrrolidine-1-sulfonamide]
5 to 50 nM	35 to 70%	1 to 10 nM	> 70%	O=C1CCC(N2Cc3cc(N4CCC(CN5CC[C@@H]6CN(c7ccc(-c8cnc9[nH]cc(C(=O)c%10c(F)ccc(NS(=O)(=O)N%11CC[C@@H](F)C%11)c%10F)c9c8)cc7)C[C@@H]6C5)CC4)ccc3C2=O)C(=O)N1 (some centres unmarked) [Compound 309]
< 5 nM	35 to 70%	< 1 nM	35 to 70%	O=C1CCC(N2Cc3cc(OCCN4CC5(C4)CN(c4ccc(-c6cnc7[nH]cc(C(=O)c8c(F)ccc(NS(=O)(=O)N9CC[C@@H](F)C9)c8F)c7c6)cc4)C5)ccc3C2=O)C(=O)N1 (stereo partly drawn) [Compound 89, (3R)-N-[3-(5-{4-[6-(2-{[2-(2,6-dioxopiperidin-3-yl)-1-oxo-2,3-dihydro-1H-isoindol-5-yl]oxy}ethyl)-2,6-diazaspiro[3.3]heptan-2-yl]phenyl}-1H-pyrrolo[2,3-b]pyridine-3-carbonyl)-2,4-difluorophenyl]-3-fluoropyrrolidine-1-sulfonamide]
